Measured values reported in patent US9096492B2, “Hydrated N-fullerene amino acids, method for producing the latter, and pharmaceutical compositions on the basis thereof” (priority 2011, dated 2015).
Where “and” joins values, the source holds several entries; their conditions need not be identical. Identical values can stand only once. Like-named read-outs stand apart in the source and are kept apart here.

Legend:
[1] = system: Ehrlich ascites carcinoma; experiment: Ehrlich ascites carcinoma in white mice, body weight dynamics
[2] = system: ascites Ehrlich carcinoma cells; experiment: Apoptosis in ascites Ehrlich carcinoma cells of treated mice (cytofluorimetric analysis); type: in vivo
[3] = system: solid Ehrlich carcinoma; experiment: Solid Ehrlich carcinoma in white mice, tumor size dynamics; conditions: Cisplatin 5 mg/kg once
[4] = system: A/Swine/1976/31 (H1N1) influenza virus; type: in vivo, mice; conditions: Tamiflu 20 mg/kg; for Infectious virus titer (log10EID50/20 mg tissue): lung tissue
[5] = Antitumor activity of the Example 3 compound
[6] = system: HIV, HSV, and influenza virus; experiment: Antiviral activity of the Example 3 compound; conditions: against HIV
Excerpt: The antiviral activity of the compound was studied against HIV, HSV, and influenza virus; its antitumor activity was also studied. The compound has high antitumor and antiviral activities against all of the aforementioned viruses. Preferred example embodiments of the invention are given below.

[7] = Solubility of the isolated product
[8] = ascites cells having large sizes and granularity (tumor cells)
[9] = ascites cells of moderate size and granularity

## N.N.[Cl][Pt][Cl] [Cisplatin, reference compound]
[1]; day 1 post tumor transplantation
  Animal body weight: 19.1 ± 5 g
[1]; day 3 post tumor transplantation
  Animal body weight: 19.3 ± 2.7 g
[1]; day 5 post tumor transplantation
  Animal body weight: 19.4 ± 2.5 g
[1]; day 8 post tumor transplantation
  Animal body weight: 19.8 ± 2.2 g
[1]; day 10 post tumor transplantation
  Animal body weight: 20.7 ± 2.4 g
[1]; day 13 post tumor transplantation
  Animal body weight: 21.4 ± 1.5 g
[1]; day 15 post tumor transplantation
  Animal body weight: 21.8 ± 1.6 g
[2]; [8]
  AnV^+ 7AAD^+ (late apoptosis): 72.8 ± 10.9%
  AnV^+ 7AAD^− (early apoptosis): 0.3 ± 0.3%
  AnV^−7AAD^+ (necrosis): 26.6% and 26.6 ± 11.1%
  AnV^−7AAD^− (living cells): 0.4 ± 0.2%
[2]; [9]
  Percent amount of cells with the phenotype AnV^+ 7AAD^+ (late apoptosis): 3.5 ± 2.4%
  Percent amount of cells with the phenotype AnV^+ 7AAD^− early apoptosis: 41.1 ± 11.3%
  Percent amount of cells with the phenotype AnV^−7AAD^+ (necrosis): 0.1 ± 0.2%
  Percent amount of cells with the phenotype AnV^−7AAD^− (living cells): 55.2 ± 11.0%
[3]; day 8 post transplantation
  Tumor size (mm^3): 56.5 mm^3
[3]; day 13 post transplantation
  Tumor size (mm^3): 249.2 mm^3
[3]; day 17 post transplantation
  Tumor size (mm^3): 464.3 mm^3
[3]; day 21 post transplantation
  Tumor size (mm^3): 1071.9 mm^3
[3]; day 24 post transplantation
  Tumor size (mm^3): 1743.3 mm^3
[3]; day 28 post transplantation
  Tumor size (mm^3): 1269.4 mm^3

## CCOC(=O)C1=C[C@@H](OC(CC)CC)[C@H](NC(C)=O)[C@@H](N)C1.O=P(O)(O)O [Tamiflu, ethyl(3R,4R,5S)-4-acetamido-5-amino-3-(1-ethylpropoxy)-1-cyclohexene-1-carboxylate phosphate, reference compound]
[4]; Summary dose, n=26
  Average lifetime (LD): 12.2 days
  Increase in LD: 3.6 days
  Index of protection: 62.8
  Mortality rate, %: 26.9%
  Number of survivors: 19
[4]; the lower of the virus doses used, day 15
  Size of chronic post-influenza pneumonia sites (% of the total surface area of the lungs): 20 ± 5%
[4]; virus 1 LD50, n=13
  Average lifetime (LD): 13.5 days
  Increase in LD: 2.9 days
  Index of protection: 71.2
  Mortality rate, %: 15.4%
  Number of survivors: 11
[4]; virus 10 LD50, n=13
  Average lifetime (LD): 11.0 days
  Increase in LD: 4.4 days
  Index of protection: 58.6
  Mortality rate, %: 38.5%
  Number of survivors: 8
[4]; virus dose 1 LD50
  Infectious virus titer (log10EID50/20 mg tissue): 3.1 ± 0.1 log10EID50/20 mg tissue
[4]; virus dose 5 LD50
  Infectious virus titer (log10EID50/20 mg tissue): 3.8 ± 0.3 log10EID50/20 mg tissue

## N-fullerene tris(8-aminooctanoic acid hydrate) [Example 3]
[5]
  antitumor activity: high
[6]
  antiviral activity: high

## N-fullerene tris-ω-aminoenanthic acid) hydrate [Example 2]
[7]
  solubility in CH3CN:H2O (1:10): soluble
  solubility in DMF-H2O (1:100): soluble
  solubility in water: soluble
